Assay results taken from patent publication US4444690A, “Technetium chelates” (priority 1982, dated 1984).
Entries after “also recorded” stand apart in the source; their conditions may differ. Read-outs that look alike come from different tables or passages of the source.

Columns and labels:
[1] = for renal excretion (urine appearance) in words: rabbits, FIG. 4
Experimental: (§1) Organ biodistribution and acute toxicity studies were carried out in mice, blood disappearance and bile appearance rates were determined by sampling of bood or bile in rats, and renal excretion rates of the two Tc-2,3-bis(mercaptoacetamido)propanoic acid components, Tc-DTPA, and OIH were determined in rabbits because of greater ease of urine sampling. The HPLC-purified Tc-2,3-bis(mercaptoacetamido)propanoate components were used directly except for dilution as necessary. In general HPLC collected volumes were 1 to 1.5 ml and were not diluted for rabbit studies, were diluted 2- to 10-fold for rat studies and were diluted about 20-fold for mouse studies. In most cases determinations were made with simultaneous administration of OIH.
The rate of renal excretion was measured in New Zealand albino male rabbits. They were anesthetized with ketamine and xylazine and placed on a gamma camera provided with digital storage. After injection of 0.5 to 1 mCi of the Tc-99m complex containing 0.5μCi of OIH, images were collected on tape for 45 minutes. At 35 minutes after injection, urine was expelled from the bladder and the percentage of injected dose contained in the expelled urine was determined. Accumulation of bladder radioactivity was monitored by placing a region of interest over the bladder. The drop in the radioactivity in the bladder after expelling the urine sample (50-80% of the bladder radioactivity) allowed calibration of the bladder time-activity curve in terms of percent injected dose.

[2] = Organ biodistribution time course of Tc-CO2-DADS components in mice (Table 1); type: in vivo, Hal Cr female albino mice; settings: mice; for Blood / Intestines / Stomach / Urine / Kidneys / Liver: mean of 6; for renal excretion / clearance in words: comparison with OIH or component A
Experimental: The time course of organ distribution was determined in groups of six Hal Cr female albino mice. They were injected with 0.10 ml (0.5 uCi) of the preparation. For comparison purposes, 0.2 uCi OIH was added to each injection. The mice were placed in metabolic cages for the collection of excreted urine. At indicated intervals after injection, the urethra was ligated and the mice killed with chloroform vapor. The organs were removed and counted in a dual channel counter with correction for I-131 crossover into the Tc-99m channel.

plasma proteins = assay: Plasma protein binding, ultrafiltration; type: in vitro ADME
Experimental: Studies of protein binding were carried out in plasma using an ultrafiltration method described at J.Nucl.Med. 22, 258-263, 1981.

[3] = rats, 90 minutes; for biliary excretion of radioactivity in the absence of renal function: renal pedicles ligated
Experimental: as §1
These determinations were made in male Sprague-Dawley rats. For blood studies the animals were anesthetized with sodium pentobarbital, a line was placed in a femoral vein for tracer injections and hydration, and another was placed in a carotid artery for blood sampling. About 20μCi (0.25 ml) each of OIH and Tc-99m complex under study were injected and 0.1 to 0.2 ml samples of blood were taken at 1, 2, 3, 4, 5, 6, 9, 12, 15, 20, 25, 30, 45, 60, 75, and 90 minutes after injection. Biliary excretion in the absence of renal function was determined by cannulating the common bile duct, ligating the renal pedicles, and collecting bile in 4-minute fractions for 90 minutes.

[4] = Blood disappearance rates in rats (FIG. 3); type: in vivo, male Sprague-Dawley rats; settings: rats; for blood disappearance in words: FIG. 3
From the text: These determinations were made in male Sprague-Dawley rats.

renal tubular transport = settings: mouse, in vivo
Experimental: A dose of 50 mg/kg of probenicid was given 10 minutes prior to injection of radiochemicals. OIH was injected simultaneously.
*Values are mean and S.E.M. percent injected dose at 10 min. post

[5] = in vivo; cited from earlier work
[6] = animals with normal renal function
[7] = 5 min post injection, listed as Tc--CO2 --DADS--A
[8] = 5 min post injection, listed as component A
[9] = 10 min post injection, listed as Tc--CO2 --DADS--A
[10] = 30 min post injection, listed as Tc--CO2 --DADS--A
[11] = 120 min post injection, listed as Tc--CO2 --DADS--A
[12] = 10 min post injection, listed as Tc--CO2 DADS--B
[13] = 120 min post injection, listed as Tc--CO2 DADS--B

For `O=C(O)C1C[N]2C(=O)C[S][99Tc-]23(=[O])[S]CC(=O)[N]13` (single isomer, unassigned) [Tc-2,3-bis(mercaptoacetamido)propanoate-A] [Tc-99m-2,3-bis(mercaptoacetamido)propanoate], the “rate of renal excretion in words” value [1, 6] was “equivalent to OIH”, the “specificity for renal excretion” value [1, 6] was “nearly complete” and the “renal excretion (urine appearance) in words” value [1] was “slightly greater extent than OIH although differences were only significant at 35 minutes (p<0.05)”. The “renal excretion (urine appearance) in words” value ([1]; listed as Component A) was “slightly faster than OIH from 10 minutes onward”, the Blood ([2]; 5 min post injection) was 8.19 percent injected dose and the Intestines ([2]; 5 min post injection) was 1.61 percent injected dose. The Stomach ([2]; 5 min post injection) was 0.24 percent injected dose, the Urine ([2]; 5 min post injection, listed as Tc-2,3-bis(mercaptoacetmido)propanoate-A, 5 min) was 45 percent injected dose and the Kidneys [2, 7] was 5.61 percent injected dose. It also gave a Liver [2, 7] of 7.81 percent injected dose, a Urine ([2]; 5 min post injection, listed as Tc--CO2 --DADS--A, 5 min) of 45.52 percent injected dose and a Kidneys [2, 8] of 5.6 percent injected dose. For the same molecule, the Liver [2, 8] was “about 8 percent injected dose”, the Blood [2, 9] was 3.10 percent injected dose and the Intestines [2, 9] was 0.82 percent injected dose. The Kidneys [2, 9] was 2.23 percent injected dose, the Liver [2, 9] was 4.26 percent injected dose and the Stomach [2, 9] was 0.11 percent injected dose. For the same molecule, the Urine ([2]; 10 min post injection, listed as Tc--CO2 --DADS--A, 10 min) was 67.97 percent injected dose, the Blood ([2]; 15 min post injection) was 1.95 percent injected dose and the Intestines ([2]; 15 min post injection) was 0.86 percent injected dose. The Kidneys ([2]; 15 min post injection) was 1.30 percent injected dose, the Liver ([2]; 15 min post injection) was 3.79 percent injected dose and the Stomach ([2]; 15 min post injection) was 0.09 percent injected dose. It also gave a Urine ([2]; 15 min post injection) of 75.08 percent injected dose, an Intestines ([2]; 30 min post injection) of 1.05 percent injected dose and a Liver ([2]; 30 min post injection) of 1.34 percent injected dose. For the same molecule, the Stomach ([2]; 30 min post injection) was 0.07 percent injected dose, the Urine ([2]; 30 min post injection) was 80.82 percent injected dose and the Kidneys ([2]; 30 min post injection, listed as Tc-2,3-bis(mercaptoacetmido)propanoate-A) was “less than 1 percent injected dose”. The Blood [2, 10] was 0.59 percent injected dose, the Kidneys [2, 10] was 0.51 percent injected dose and the Blood ([2]; 30 min post injection, listed as component A) was 0.6 percent injected dose. It also gave a Blood [2, 11] of 0.21 percent injected dose, an Intestines [2, 11] of 1.46 percent injected dose and a Kidneys [2, 11] of 0.25 percent injected dose. For the same molecule, the Liver [2, 11] was 0.78 percent injected dose, the Stomach [2, 11] was 0.04 percent injected dose and the Urine ([2]; 120 min post injection, listed as Tc--CO2 --DADS--A, 120 min) was 86.57 percent injected dose. The Liver ([2]; 120 min post injection, listed as component A) was “less than 1 percent injected dose”, the “radioactivity seen in the intestine” value ([2]; at any time interval) was at most 1.6% and the “renal excretion / clearance in words” value [2] was “slightly higher than or comparable to OIH in renal excretion”. The “protein binding in words” value (plasma proteins) was “high degree of protein binding”, the “binding to plasma proteins” value (plasma proteins; 10 min) was 93% and the “binding to plasma proteins” value (plasma proteins; 0.5 h) was 94%. The radioactivity in muscle ([3]; absence of renal function) was 22%, the “radioactivity in the blood” value ([3]; absence of renal function) was 21% and the “radioactivity in the kidneys” value ([3]; absence of renal function) was 1%. For the same molecule, the “radioactivity in the liver” value ([3]; absence of renal function) was 4%, the “radioactivity in the spleen” value ([3]; absence of renal function) was 0.1% and the “radioactivity in the stomach” value ([3]; absence of renal function) was 0.3%. For the same molecule, the “biliary excretion of radioactivity in the absence of renal function” value [3] was “less than 3%”, the “biliary excretion of radioactivity in the absence of renal function” value ([3]; listed as Tc-99m-2,3-bis(mercaptoacetamido)propanoate-A) was 3.1% and the “time at which radioactivity remaining in the blood was 2%” value [4] was 36 min. The “time at which radioactivity remaining in the blood was 5%” value [4] was 16.5 min, the “blood disappearance in words” value [4] was “higher initial value resulted in comparable curve slopes” and the “blood disappearance in words” value ([4]; listed as component A) was “comparable to or slightly greater than that of OIH”. The “biliary excretion with probenicid, in words” value (renal tubular transport) was “not increased significantly”, the “liver radioactivity with probenicid, in words” value (renal tubular transport) was “Biliary excretion was not increased significantly for component A, but liver radioactivity was” and the Blood (renal tubular transport; 10 min) was 3.37 percent injected dose. For the same molecule, the Intestines (renal tubular transport; 10 min) was 0.77 percent injected dose, the Kidneys (renal tubular transport; 10 min) was 2.53 percent injected dose and the Liver (renal tubular transport; 10 min) was 4.21 percent injected dose.

With `O=C(O)C1C[N]2C(=O)C[S][99Tc-]23(=[O])[S]CC(=O)[N]13` (single isomer, unassigned) [Tc-2,3-bis(mercaptoacetamido)propanoate-B] [Tc-99m-2,3-bis(mercaptoacetamido)propanoate] the “renal excretion (urine appearance) in words” value [1] was “significantly lower at early times, but similar to component A and OIH at 35 minutes”, the “renal excretion (urine appearance) in words” value ([1]; listed as Component B) was “always faster than Tc-DTPA, but significantly slower than OIH or component A at early times” and the “biliary excretion in words” value [2] was “Negligible biliary excretion”. For the same molecule, the Blood [2, 12] was 3.64 percent injected dose, the Intestines [2, 12] was 1.00 percent injected dose and the Kidneys [2, 12] was 2.87 percent injected dose. It also gave a Liver [2, 12] of 14.83 percent injected dose, a Stomach [2, 12] of 0.13 percent injected dose and a Urine ([2]; 10 min post injection, listed as Tc--CO2 DADS--B, 10 min) of 51.94 percent injected dose. It also gave a Blood [2, 13] of 0.14 percent injected dose, an Intestines [2, 13] of 0.21 percent injected dose and a Kidneys [2, 13] of 0.14 percent injected dose. It also gave a Liver [2, 13] of 3.71 percent injected dose, a Stomach [2, 13] of 0.02 percent injected dose and a Urine ([2]; 120 min post injection, listed as Tc--CO2 DADS--B, 120 min) of 79.16 percent injected dose. The “renal excretion / clearance in words” value ([2]; listed as Tc-2,3-bis(mercaptoacetamido)proponoate-B) was “more slowly cleared; also recorded: renal excretion was only slightly lower than OIH determined simultaneously”, the “binding to plasma proteins” value (plasma proteins; 10 min) was 87% and the “binding to plasma proteins” value (plasma proteins; 0.5 h) was 90%. For the same molecule, the “blood disappearance in words” value [4] was “faster than Tc-DTPA, was significantly slower than Tc-2,3-bis(mercaptoacetamido)propanoate-A” and the “blood disappearance in words” value ([4]; listed as component B) was “significantly faster than Tc-DTPA”.

In the case of “Tc-99m diethylenetriaminepentaacetic acid [Tc-99m DTPA]”, the extraction efficiency [5] is given as at most 20%.
